Measured values from PMC8626775, “Anti-schistosomal activities of quinoxaline-containing compounds: From hit identification to lead optimisation” (European Journal of Medicinal Chemistry, 2021).
Entries after “also recorded” stand apart in the source; their conditions may differ.

Key:
HepG2 cells = test: HepG2 MTT cytotoxicity assay
Method in brief: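 HepG2 cells seeded at 2 × 10^4 cells/well, cultured at 37 °C in 5% CO2. Viability by MTT, formazan absorbance at 570 nm. The cytotoxicity value served for computing compound selectivity index.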

S. mansoni adult worms = test: In vitro laid egg (IVLE) production by S. mansoni adult worm pairs, 72 h; assay type: cell-based, Schistosoma mansoni; conditions: 0.0024–10 μM
Procedure: For the evaluation of anti-schistosomal activity on the adult stage of the parasite, 7-wk old worms were transferred into 48 well tissue culture plates (1–3 worm pairs/well, in duplicate). […] DMSO (0.5%) and praziquantel (10 μM in 0.5% DMSO) were also included as negative and positive control treatments. Treated adult worms were incubated for 72 h in a humidified environment containing 5% CO2 at 37 °C. Parasite motility after compound treatment was assessed by a digital image processing-based system (WormassayGP2), modified after Wormassay. Following compound-parasite co-incubation, eggs were collected, fixed in formalin (10% v/v formaldehyde) and enumerated aiming to collect further information on any compound-induced effects on parasite fecundity and IVLE production.

TK6 cells = test: Genotoxicity assessment in TK6 cells (micronucleus, ɣH2AX, p53, cell cycle)
Procedure: (§1) The in vitro micronucleus (MN) assay was employed for the assessment of chromosome damage. Human, p53 competent, lymphoblastoid TK6 cells (Cat. No. 95111735) were used in this study and obtained from the European Collection of Authenticated Cell Cultures (ECACC)). RPMI 1640 (Gibco, Paisley, UK) culture media supplemented with 1% penicillin/streptomycin (100 U/ml Penicillin and 100 μg/ml Streptomycin), 10% heat inactivated horse serum (Gibco, Paisley, UK), 1% L-glutamine (Gibco, Paisley, UK) and hygromycine-B was used for TK6 cell culture. Cells were incubated at 37 °C in a humidified atmosphere of 5% (v/v) CO2.

in vitro = conditions: human, TK6 lymphoblastoid cells
Procedure: as §1

[1] = test system: Juvenile S. mansoni worms; test: S. mansoni juvenile worm screen (motility score, propidium iodide uptake), 72 h; assay type: cell-based, Schistosoma mansoni; conditions: for EC50: 3 week juvenile S. mansoni; for PI pos: juvenile worms, Fig. S4
Description: Mice (Mus musculus HsdOLa:TO - Tuck Ordinary; Envigo, UK) were used for the mammalian-specific propagation of the S. mansoni life cycle. Experimental animals were infected with 4000 or 180 S. mansoni cercariae/mouse and perfused three- or seven-weeks post-infection to obtain S. mansoni juvenile or adult worms, respectively. Preparation steps following perfusion have been described previously. Briefly, the parasite material was washed three times with pre-warmed adult worm media (DMEM (Gibco, Paisley, UK) supplemented with 10% (v/v) Fetal Calf Serum (FCS, Gibco, Paisley, UK), 1% (v/v) L-glutamine (Gibco, Paisley, UK) and an antibiotic mixture (150 Units/ml penicillin and 150 μg/ml streptomycin; Gibco, UK)) to remove residual host contamination and incubated in a humidified environment containing 5% CO2 at 37 °C for at least 1 h.
Juvenile worms were distributed in a 96-well tissue culture plate (n = 20–25 individuals/well) containing 200 μl/well. Compounds were added to each treatment well at a concentration range of 10–0.156 μM. Negative (1.25% DMSO) and positive (15 μM PZQ and 15 μM AUR in 1.25% DMSO) controls were also included in each drug screen. Treated juvenile worms were incubated for 72 h in a humidified environment containing 5% CO2 at 37 °C. Compound-induced phenotype and motility effects were quantified using an adapted version of the WHO-TDR scoring system (in summary: 0 = dead, 1 = movement of the suckers only and slight contraction of the body, 2 = movement at the anterior and posterior regions only, 3 = full body movement but sluggish and 4 = normal movement). Additionally, differential uptake of propidium iodide (PI, P1304MP, Sigma-Aldrich, UK) was used to quantify worm viability as previously described. In brief, after 15 min incubation with 2 μg/ml PI, the parasite cultures were imaged under both bright-field and fluorescent settings (PI detection, 562 and 624 excitation and emission wavelengths, respectively) using an ImageXpressXL high content imager (Molecular Devices, UK). Enumeration of PI positive and negative juvenile worms was manually performed across all parasites within the well and the percentage of PI positive parasite was calculated per well.

Row | SMILES | Toxicity on HepG2 in words (HepG2 cells; 24 h) | Selectivity Index (SI) Adult worms (HepG2 cells; HepG2 CC50 versus adult worm EC50) | Selectivity Index (SI) Somula (HepG2 cells; HepG2 CC50 versus schistosomula EC50) | Effect on IVLE production compared with PZQ (S. mansoni adult worms) | Number of micronuclei (MNi) compared to DMSO treated cells (TK6 cells) | Cell-cycle analysis (TK6 cells; 2 and 4 μM) | Genotoxicity (TK6 cells; TK6 cells, 0.5, 2 and 4 μM) | CC50 at 24 h (in vitro) | EC50 ([1]; 72 h) | Concentration down to which parasite death of juvenile worms was induced ([1]; 72 h, supported by propidium iodide staining) | EC50 ([1]; Schistosoma mansoni, 72 h) | PI pos ([1]; 0.156 µM) | PI pos ([1]; 0.312 µM) | PI pos ([1]; 0.625 µM) | PI pos ([1]; 1.25 µM) | PI pos ([1]; 2.50 µM) | PI pos ([1]; 5 µM) | PI pos ([1]; 10 µM)
1 | O=[N+]([O-])c1ccc2nc(Nc3cc(C(F)(F)F)ccc3F)c(Nc3cc(C(F)(F)F)ccc3F)nc2c1 [Compound 33, N2, N3-bis(2-fluoro-5-(trifluoromethyl)phenyl)-6-nitroquinoxaline-2,3-diamine] | low toxicity | 17.87 | 0.66 | more potent than PZQ |  |  |  |  |  |  |  |  |  |  |  |  |  | 
2 | O=[N+]([O-])c1ccc2nc(Nc3ccc(Cl)c(Cl)c3)c(Nc3ccc(Cl)c(Cl)c3)nc2c1 [Compound 22, N^2, N^3-bis(3,4-dichlorophenyl)-6-nitroquinoxaline-2,3-diamine] |  |  |  |  | did not change significantly | G2/M phase arrest | non-genotoxic; also recorded: does not induce genotoxicity | 9360 nM | 201 nM | 1.25 µM | 200 nM | 0% | 10% | 20% | 100% | 100% | 100% | 100%
